Measured values: PMC7279046, “Discovery of the Novel Inhibitor Against New Delhi Metallo-β-Lactamase Based on Virtual Screening and Molecular Modelling” (International Journal of Molecular Sciences, 2020)
“Also recorded” adds a separate entry of the source. Read-outs that look alike come from different tables or passages of the source. One block for each compound: values may come before it.

Assays:
[1] = target: T1, NDM-1 (Klebsiella pneumoniae, UniProt C7C422); assay: nitrocefin assay (hydrolysis by purified NDM-1); assay type: biochemical
T1 construct: made in house; host or cells: E. coli BL21 (DE3)
Procedure: The inhibitory activities of 18 compounds against NDM-1 were tested by nitrocefin assay. The purified NDM-1 was incubated with drugs and nitrocefin, then the absorbance values of OD492nm were determined as the nitrocefin hydrolysis. […]
collected for the subsequent protein purification as described by Liu et.al. […]
further determination of the inhibitory effect of ZINC05683641 on the hydrolysis activities of NDM-1. The initial identifying of NDM-1 inhibitory activities was carried out on the […]
serves as an indicator whose colour changes from yellow to red with increased hydrolysis.
(§1) NDM-1 were incubated with various concentrations of inhibitor (0, 4, 8, 16, 32, 64 μg/mL) in phosphate buffer (pH = 7.4) at room temperature for 20 minutes, and then, 25 μL of nitrocefin was added to the mixture. After 10 minutes of incubation, the samples were read at OD492nm to determine the level of nitrocefin hydrolysis. […]

[2] = test system: E. coli BL21 (pET28a-SP-NDM-1); assay: antibacterial activity assay (MIC, broth microdilution; FICI); assay type: cell-based; conditions: for MIC: Escherichia coli; for FICI: FICI ≤ 0.5 denotes synergy
[3] = target: T1, NDM-1; conditions: cited from earlier work
[4] = target: T2, WT-NDM-1 (Klebsiella pneumoniae, UniProt C7C422); assay: fluorescence-quenching assay, WT; assay type: binding
T2 construct: made in house; host or cells: E. coli BL21 (DE3)
Procedure: (§2) Furthermore, this competitive inhibition mechanism was verified by fluorescence quenching method. In previous literature, fluorescence quenching method are extensively used in the interaction mechanism research between ligand and protein. The binding constants of NDM-1 with ZINC05683641 were measured by fluorescence quenching method in this research. […] It is believed that the 3D structure of NDM-1-ZINC05683641 complex is reliable by MD simulation, and residues of ILE-35, MET-67, VAL-73, TRP-93, CYS-208, ASN-220 and HIS-250 played crucial roles in the binding of ZINC05683641 to NDM-1. […]
(§3) Fluorescence-quenching assay
(§4) According to Dong et al., Niu et al. and Qiu et al., the binding constants (KA) of WT-NDM-1 and two mutants NDM-1 with inhibitor were measured using the fluorescence-quenching […]
(§5) Site-Directed Mutagenesis
(§6) The recombinant plasmid pET28a-NDM-1 was constructed according to previous reports encoding WT-NDM-1. Plasmids encoding W93A-NDM-1 or H250A-NDM-1 were constructed by using a QuikChange site-directed mutagenesis kit. The template plasmid was the pET28a-NDM-1 plasmid, as noted above.
(§7) Expression and puriﬁcation of WT-PLY and mutants
(§8) Plasmids harboring the coding sequences for WT-NDM-1, W93A-NDM-1, and H250A-NDM-1 were transformed into E. coli BL21 (DE3). […]

[5] = target: T3, H250A-NDM-1 (Klebsiella pneumoniae, UniProt C7C422, H250A); assay: nitrocefin assay with mutant H250A; assay type: biochemical; conditions: 4-64 μg/mL
Procedure: (§9) Subsequently, the inhibitory activity of ZINC05683641 against mutants was tested by the nitrocefin assays. […] The findings indicate that due to the mutation of residues in the binding sites, the binding affinity of ZINC05683641 with NDM-1 decreased, leading to a loss of inhibitory activity. […]
as §5, §6, §7
(§10) Plasmids harboring the coding sequences for WT-NDM-1, W93A-NDM-1, and H250A-NDM-1 were transformed into E. coli BL21 (DE3). The E. coli strain was cultured in 1,000 mL of LB broth supplemented with 50 μg mL–1 kanamycin until the OD 600 nm of the cultures reached 0.6–0.8.
(§11) Protein expression was induced by using 0.3 mM IPTG for 12 h at 16 °C. The cells were harvested and washed once with sterile PBS. […]
as §1

[6] = target: T4, W93A-NDM-1 (Klebsiella pneumoniae, UniProt C7C422, W93A); assay: nitrocefin assay with mutant W93A; assay type: biochemical; conditions: 4-64 μg/mL
Procedure: as §9, §5, §6, §7, §10, §11, §1

[7] = target: T4, W93A-NDM-1; assay: fluorescence-quenching assay, W93A; assay type: binding
Procedure: as §2, §3, §4, §5, §6, §7, §8

[8] = target: T3, H250A-NDM-1; assay: fluorescence-quenching assay, H250A; assay type: binding
Procedure: as §2, §3, §4, §5, §6, §7, §8

[9] = IC50, nitrocefin hydrolysis, OD492nm, mean ± SD, n = 3
[10] = IC50 (not available; inhibitory activity at 1 mM), initial test at a concentration of 1 mM

T1 sequence (C7C422 29-270 limits assumed): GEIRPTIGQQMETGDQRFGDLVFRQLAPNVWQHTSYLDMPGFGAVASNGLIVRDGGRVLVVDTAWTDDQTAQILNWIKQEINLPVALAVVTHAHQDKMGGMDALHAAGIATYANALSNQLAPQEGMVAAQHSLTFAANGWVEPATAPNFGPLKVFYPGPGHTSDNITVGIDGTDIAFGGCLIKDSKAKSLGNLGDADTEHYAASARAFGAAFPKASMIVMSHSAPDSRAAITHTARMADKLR
T4 sequence (C7C422 29-270 W93A): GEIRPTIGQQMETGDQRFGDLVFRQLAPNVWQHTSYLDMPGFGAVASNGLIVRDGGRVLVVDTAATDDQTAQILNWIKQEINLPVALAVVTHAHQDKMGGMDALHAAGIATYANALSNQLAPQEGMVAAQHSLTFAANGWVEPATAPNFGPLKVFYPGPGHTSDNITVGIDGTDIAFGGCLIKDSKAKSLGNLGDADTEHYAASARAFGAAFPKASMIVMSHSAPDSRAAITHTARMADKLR
T3 sequence (C7C422 29-270 H250A): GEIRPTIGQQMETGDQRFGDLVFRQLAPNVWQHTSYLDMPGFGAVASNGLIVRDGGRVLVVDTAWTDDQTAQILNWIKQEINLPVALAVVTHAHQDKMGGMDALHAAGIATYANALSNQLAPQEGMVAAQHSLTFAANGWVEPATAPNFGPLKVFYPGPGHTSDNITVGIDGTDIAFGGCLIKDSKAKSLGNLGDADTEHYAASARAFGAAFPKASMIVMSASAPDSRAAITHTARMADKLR
T2 sequence (C7C422 29-270 limits assumed): as the sequence (C7C422 29-270 limits assumed) above

IC50 [1, 9]: 207 ± 15.5 µM
Compound: Cc1ccc(N2C(=O)c3ccc(C(=O)c4ccc5c(c4)C(=O)N(c4ccc(C)cc4C)C5=O)cc3C2=O)c(C)c1 [ZINC00639379]

Compound: C[C@@H](O)[C@H]1C(=O)N2C(C(=O)O)=C(S[C@@H]3CN[C@H](C(=O)N(C)C)C3)[C@H](C)[C@H]12 [Meropenem]
MIC of meropenem in combination ([2]; +64 μg/mL ZINC05683641): 8 µg/mL | MIC of meropenem in combination ([2]; +128 μg/mL ZINC05683641): 8 µg/mL | MIC [2]: 32 µg/mL | reduction of the MICs of meropenem ([2]; addition of ZINC05683641 at 64 and 128 μg/mL): fourfold | FICI ([2]; meropenem +64 μg/mL ZINC05683641): 0.375 | FICI ([2]; meropenem +128 μg/mL ZINC05683641): 0.50 | FICI ([2]; meropenem +128 μg/mL ZINC05683641, listed as meropenem): 0.500

IC50 [1, 9]: > 300 µM
Compound: O=[N+]([O-])c1cccc(S(=O)(=O)N2CN(c3ccc4ccccc4c3)c3nc4ccccc4nc32)c1 [ZINC12524283]

IC50 [1, 9]: > 300 µM
Compound: O=C1c2cccc3cccc(c23)C(=O)N1OS(=O)(=O)c1ccc(Cl)cc1 [ZINC02953923]

IC50 [1, 9]: > 300 µM
Compound: O=c1oc2cc(OCc3ccc(Cl)c(Cl)c3)ccc2cc1-c1nc2ccccc2s1 [ZINC01799114]

IC50 [1, 10]: > 1000 µM
Compound: Cc1ccccc1S(=O)(=O)ON1C(=O)c2cccc3cc(S(=O)(=O)N(C)C)cc(c23)C1=O [ZINC25558269]

IC50 [1, 9]: > 300 µM
Compound: Cc1ccc(S(=O)(=O)Nc2cccc3cccc(NS(=O)(=O)c4ccc(C)cc4)c23)cc1 [ZINC03198432]

IC50 [1, 9]: > 300 µM
Compound: O=C1c2cccc3c(Br)ccc(c23)C(=O)N1OS(=O)(=O)c1ccc(Cl)cc1 [ZINC25558273]

IC50 [1, 9]: 108 ± 5.64 µM
Compound: Cc1ccc(N2C(=O)c3ccc(C(=O)c4ccc5c(c4)C(=O)N(c4ccc(C)cc4C)C5=O)cc3C2=O)c(C)c1 [ZINC02079077]

IC50 [1, 9]: > 300 µM
Compound: Cc1ccc(S(=O)(=O)ON2C(=O)c3cccc4cccc(c34)C2=O)cc1 [ZINC02938448]

Compound: N[C@H](CN[C@H](CN[C@@H](CC(=O)O)C(=O)O)C(=O)O)C(=O)O [aspergillomarasmine A]
IC50 [3]: 4 µM

IC50 [1, 9]: > 300 µM
Compound: C[C@H]1CCc2cc(F)cc3c(=O)c(C(=O)NCc4ccccc4Cl)c(O)n1c23 [ZINC06166781]

Compound: COc1ccc2c3c(cccc13)C(=O)N(OS(=O)(=O)c1ccc(C)cc1)C2=O [ZINC05683641]
Kd [4]: 2.4 µM | inhibition of H250A hydrolysis activity [5]: almost no inhibition; also recorded: did not lead to inhibitory effects | MIC [2]: > 512 µg/mL | inhibition of cell growth ([2]; inhibitor alone, 512 μg/mL): did not inhibit cell growth | inhibition of W93A hydrolysis activity [6]: almost no inhibition; also recorded: did not lead to inhibitory effects | Kd [7]: 3.28 µM | binding constant KA ([7]; W93A, fluorescence spectroscopy quenching, mean ± SD, n = 3): 3.05 ± 0.83 1 × 10^5 L mol^−1 | Kd [8]: 4.65 µM | binding constant KA ([8]; H250A, fluorescence spectroscopy quenching, mean ± SD, n = 3): 2.15 ± 0.88 1 × 10^5 L mol^−1 | IC50 [1, 9]: 13.6 ± 0.52 µM | hydrolysis activity of nitrocefin by WT-NDM-1 ([1]; final concentrations of 4, 8, 16, 32 and 64 μg/mL): reduced | inhibition at 16 µM ([1]; read-out: inhibition rate): > 50%

IC50 [1, 9]: > 300 µM
Compound: Cc1ccc(S(=O)(=O)N[C@@H](C(=O)Oc2ccc3c4c(c(=O)oc3c2)CCCC4)c2ccccc2)cc1 [ZINC11865709]

IC50 [1, 9]: > 300 µM
Compound: Cc1ccc(-c2cc(C(=O)Oc3ccc([N+](=O)[O-])cc3)c3cc(C)ccc3n2)cc1 [ZINC02577071]

Compound: O=C(N[C@@H](Cc1ccc2ccccc2c1)C(=O)O)OCC1c2ccccc2-c2ccccc21 [ZINC04218138]
IC50 [1, 10]: > 1000 µM

IC50 [1, 9]: > 300 µM
Compound: O=C1C(=Cc2cccc(Cl)c2)CN(Cc2ccccc2)CC1=Cc1cccc(Cl)c1 [ZINC20115378]

IC50 [1, 10]: > 1000 µM
Compound: Cc1ccc(C2=NN3[C@@H](C(=O)c4ccc(-c5ccccc5)cc4)Oc4ccc(Cl)cc4[C@H]3C2)cc1 [ZINC25558691]

IC50 [1, 10]: > 1000 µM
Compound: Cc1ccc(-c2cc(C(F)(F)F)c3c(N)c(C(=O)c4ccccc4)sc3n2)cc1 [ZINC06421319]
